Among the data in patent US12331035B2, “Bicyclic compound and use thereof” (SK BIOPHARMACEUTICALS CO., LTD., priority 2019, dated 2025) are IC50 values, retold here.

The structures appear in SMILES notation.

The target in the experiment is T1, PRMT5-MEP50 enzyme complex (Homo sapiens, UniProt O14744).
T1 construct: purchased BPS Bioscience (USA) 51045
T1 sequence (O14744 2-637 limits assumed): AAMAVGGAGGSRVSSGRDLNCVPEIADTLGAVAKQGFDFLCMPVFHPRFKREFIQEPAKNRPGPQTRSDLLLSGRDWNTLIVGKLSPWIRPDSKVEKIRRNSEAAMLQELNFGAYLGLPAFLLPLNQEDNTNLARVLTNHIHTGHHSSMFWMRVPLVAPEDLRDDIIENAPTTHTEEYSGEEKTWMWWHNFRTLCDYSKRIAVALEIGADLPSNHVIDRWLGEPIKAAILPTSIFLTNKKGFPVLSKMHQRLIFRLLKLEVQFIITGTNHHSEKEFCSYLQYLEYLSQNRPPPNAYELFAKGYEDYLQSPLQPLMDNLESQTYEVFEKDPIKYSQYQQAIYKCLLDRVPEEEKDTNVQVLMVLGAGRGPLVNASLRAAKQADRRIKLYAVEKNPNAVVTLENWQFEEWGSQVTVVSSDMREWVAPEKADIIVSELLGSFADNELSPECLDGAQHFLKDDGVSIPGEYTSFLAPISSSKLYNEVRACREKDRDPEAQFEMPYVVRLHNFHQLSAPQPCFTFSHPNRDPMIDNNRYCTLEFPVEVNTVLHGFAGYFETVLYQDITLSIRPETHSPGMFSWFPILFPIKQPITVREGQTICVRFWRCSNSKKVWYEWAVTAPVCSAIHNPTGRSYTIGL
T1 sequence (Q9BQA1 2-342 partner limits assumed): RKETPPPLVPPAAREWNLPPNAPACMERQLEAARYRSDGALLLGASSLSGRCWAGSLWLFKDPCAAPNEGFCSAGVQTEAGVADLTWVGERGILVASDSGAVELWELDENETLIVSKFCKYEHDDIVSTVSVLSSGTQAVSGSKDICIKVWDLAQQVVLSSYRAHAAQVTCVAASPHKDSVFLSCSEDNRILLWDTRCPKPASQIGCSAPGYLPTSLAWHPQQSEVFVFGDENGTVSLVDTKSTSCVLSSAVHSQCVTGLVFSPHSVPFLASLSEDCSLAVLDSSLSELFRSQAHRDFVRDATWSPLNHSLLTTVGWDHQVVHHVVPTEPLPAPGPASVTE
The experiment in a line: In vitro PRMT5 enzyme activity assay (methylation of histone H4 arginine H4R3, ELISA absorbance at 450 nm). To be noted: S-adenosylmethionine, histone H4 peptide, 2 hours at room temperature, 8 points 10 μM to 0.128 nM. The experiment is classed as biochemical. The procedure: Method for Measuring Enzyme Activity
In vitro assay: PRMT5-MEP50 enzyme complex, cofactor S-adenosylmethionine (SAM) and histone H4 peptide were reacted in vitro, and methylation of arginine (H4R3) —which is the third amino acid of histone H4—was measured in order to measure the enzyme activity of PRMT5.
Reagents: PRMT5-MEP50 enzyme complex (Catalog No. 51045), blocking buffer (52100-B), histone methyltransferase reaction buffer 2 (4×HMT assay buffer 2, Catalog No. 52170), and primary antibody (primary antibody 4-3, Catalog No. 52150) were purchased from BPS Bioscience (USA). The histone H4 peptide (1-20 amino acids) was custom made by Komabiotech (Korea) and used. S-adenosylmethionine was purchased from NEB (New England Biolabs, USA, Catalog No. B9003S). Plates for coating histone H4 peptide, washing buffer and color development reagent were purchased from the following vendors: Plate (Immobilizer™-Amino Plate, NUNC, Denmark, Catalog No. 436023), carbonate-bicarbonate buffer (Sigma-Aldrich, USA, Catalog No. C3041), washing buffer (10×TBST, Biosesang, Korea, Catalog No. T2005), TMB ELISA substrate (Abcam, UK, Catalog No. ab210902), horseradish peroxidase (HRP)-conjugated antibody (Abcam, UK, Catalog No. ab6721).
Experimental procedure: The histone H4 peptide was diluted with carbonate-bicarbonate buffer and prepared to 100 μg/mL, and then dispensed onto the plate per 100 μL and reacted at 37° C. for 1 hour. PRMT5-MEP50 enzyme complex and S-adenosylmethionine were diluted with histone methyltransferase reaction buffer to prepare 5 μg/mL and 2 μM, respectively, and then 20 μL of PRMT5-MEP50 enzyme complex and 25 μL of S-adenosylmethionine were dispensed onto the plate prepared above. 5 μL of the compound diluted with 10% dimethyl sulfoxide solution was added thereto and reacted at room temperature for 2 hours (final volume=50 μL). The concentration of the compound was diluted 1:5 from 10 μM until the lowest concentration of 0.128 nM, and 8 points were used for the test. After preparing the primary antibody by diluting 1:2000 with blocking buffer, 100 μL was added to the plate and reacted at room temperature for 1 hour. After preparing horseradish peroxidase-conjugated antibody by diluting 1:10,000 with blocking buffer, 100 μL was added to the plate and reacted at room temperature for 1 hour. 100 μL of TMB substrate was added and reacted for 3 minutes at room temperature, and 100 μL of 1 N sulfuric acid was then added to terminate the reaction. Then, the absorbance at 450 nm was measured to calculate the IC50 value of the compound. (+++: 1 to 100 nM, ++: greater than 100 to 1,000 nM, +: greater than 1,000 to 10,000 nM)
For orientation: IC50 means the concentration that inhibits the measured activity by half. Low readings indicate higher potency, high ones lower potency. `O=C1c2ccc(NCC3CCOC3)cc2CCN1C[C@H](O)CN1CCc2ccccc2C1` (stereo partly drawn) [Example 30, 2-[(2R)-3-(3,4-dihydro-1H-isoquinolin-2-yl)-2-hydroxy-propyl]-6-(tetrahydrofuran-3-ylmethylamino)-3,4-dihydroisoquinolin-1-one] gave an IC50 of 1 to 100 nM.
In the case of `O=C1c2ccc(NCC3CCNCC3)cc2CCN1C[C@H](O)CN1CCc2ccccc2C1` [Example 31, 2-[(2R)-3-(3,4-dihydro-1H-isoquinolin-2-yl)-2-hydroxy-propyl]-6-(4-piperidylmethylamino)-3,4-dihydroisoquinolin-1-one] it was 1 to 100 nM.
As for `CC(=O)N1CCC(Nc2ccc3c(c2)CCN(C[C@H](O)CN2CCc4ccccc4C2)C3=O)CC1` [Example 32, 6-[(1-acetyl-4-piperidyl)amino]-2-[(2R)-3-(3,4-dihydro-1H-isoquinolin-2-yl)-2-hydroxy-propyl]-3,4-dihydroisoquinolin-1-one], the IC50 was 1 to 100 nM.
With `O=C(CN1CCOCC1)Nc1ccc2c(c1)CCN(C[C@H](O)CN1CCc3ccccc3C1)C2=O` [Example 33, N-[2-[(2R)-3-(3,4-dihydro-1H-isoquinolin-2-yl)-2-hydroxy-propyl]-1-oxo-3,4-dihydroisoquinolin-6-yl]-2-morpholino-acetamide], the half-maximal inhibitory concentration (IC50) lay within 1 to 100 nM.
With `O=C1c2ccc(NC3CCNCC3)cc2CCN1C[C@H](O)CN1CCc2ccccc2C1` [Example 34, 2-[(2R)-3-(3,4-dihydro-1H-isoquinolin-2-yl)-2-hydroxy-propyl]-6-(4-piperidylamino)-3,4-dihydroisoquinolin-1-one], the IC50 was in the range of 1000 to 10000 nM.
In the case of `O=C1c2ccc(N3CCC(CO)CC3)cc2CCN1C[C@H](O)CN1CCc2ccccc2C1` [Example 35, 2-[(2R)-3-(3,4-dihydro-1H-isoquinolin-2-yl)-2-hydroxy-propyl]-6-[4-(hydroxymethyl)-1-piperidyl]-3,4-dihydroisoquinolin-1-one] it was 1 to 100 nM; in that of `O=C1c2ccc(N3CCCC(CO)C3)cc2CCN1C[C@H](O)CN1CCc2ccccc2C1` (stereo partly drawn) [Example 36, 2-[(2R)-3-(3,4-dihydro-1H-isoquinolin-2-yl)-2-hydroxy-propyl]-6-[3-(hydroxymethyl)-1-piperidyl]-3,4-dihydroisoquinolin-1-one], 1 to 100 nM.
In the case of `O=C1c2ccc(N3CCC(O)CC3)cc2CCN1C[C@H](O)CN1CCc2ccccc2C1` [Example 37, 2-[(2R)-3-(3,4-dihydro-1H-isoquinolin-2-yl)-2-hydroxy-propyl]-6-(4-hydroxy-1-piperidyl)-3,4-dihydroisoquinolin-1-one] it was 1 to 100 nM; in that of `O=C1c2ccc(N3CCCC(O)C3)cc2CCN1C[C@H](O)CN1CCc2ccccc2C1` (stereo partly drawn) [Example 38, 2-[(2R)-3-(3,4-dihydro-1H-isoquinolin-2-yl)-2-hydroxy-propyl]-6-(3-hydroxy-1-piperidyl)-3,4-dihydroisoquinolin-1-one], 100 to 1000 nM.
For `O=C1c2ccc(N3CCOC3)cc2CCN1C[C@H](O)CN1CCc2ccccc2C1` [Example 39, 2-[(2R)-3-(3,4-dihydro-1H-isoquinolin-2-yl)-2-hydroxy-propyl]-6-oxazolidin-3-yl-3,4-dihydroisoquinolin-1-one], the concentration for half-maximal inhibition (IC50) fell in the range of 100 to 1000 nM.
In the case of `CC1COCCN1c1ccc2c(c1)CCN(C[C@H](O)CN1CCc3ccccc3C1)C2=O` (stereo partly drawn) [Example 40, 2-[(2R)-3-(3,4-dihydro-1H-isoquinolin-2-yl)-2-hydroxy-propyl]-6-(3-methylmorpholin-4-yl)-3,4-dihydroisoquinolin-1-one] it was 1000 to 10000 nM; in that of `O=C(CO)Nc1ccc2c(c1)CCN(C[C@H](O)CN1CCc3ccccc3C1)C2=O` [Example 41, N-[2-[(2R)-3-(3,4-dihydro-1H-isoquinolin-2-yl)-2-hydroxy-propyl]-1-oxo-3,4-dihydroisoquinolin-6-yl]-2-hydroxy-acetamide], 1 to 100 nM.
`CC(=O)Nc1ccc2c(c1)CCN(C[C@H](O)CN1CCc3ccccc3C1)C2=O` [Example 42, N-[2-[(2R)-3-(3,4-dihydro-1H-isoquinolin-2-yl)-2-hydroxy-propyl]-1-oxo-3,4-dihydroisoquinolin-6-yl]acetamide] registered an IC50 of 100 to 1000 nM.
Compound `O=C1c2ccc(CN3CCOCC3)cc2CCN1C[C@H](O)CN1CCc2ccccc2C1` [Example 43, 2-[(2R)-3-(3,4-dihydro-1H-isoquinolin-2-yl)-2-hydroxy-propyl]-6-(morpholinomethyl)-3,4-dihydroisoquinolin-1-one] returned an IC50 of 1000 to 10000 nM.
In the case of `O=C1c2ccc(N3CC4(COC4)C3)cc2CCN1C[C@H](O)CN1CCc2ccccc2C1` [Example 44, 2-[(2R)-3-(3,4-dihydro-1H-isoquinolin-2-yl)-2-hydroxy-propyl]-6-(2-oxa-6-azaspiro[3.3]heptan-6-yl)-3,4-dihydroisoquinolin-1-one] it was 1 to 100 nM.
`O=C1c2ccc(N3CCOC3=O)cc2CCN1C[C@H](O)CN1CCc2ccccc2C1` [Example 45, 3-[2-[(2R)-3-(3,4-dihydro-1H-isoquinolin-2-yl)-2-hydroxy-propyl]-1-oxo-3,4-dihydroisoquinolin-6-yl]oxazolidin-2-one] had an IC50 of 100 to 1000 nM.
In the case of `O=C1c2ccc(N3CC(CO)C3)cc2CCN1C[C@H](O)CN1CCc2ccccc2C1` [Example 46, 2-[(2R)-3-(3,4-dihydro-1H-isoquinolin-2-yl)-2-hydroxy-propyl]-6-[3-(hydroxymethyl)azetidin-1-yl]-3,4-dihydroisoquinolin-1-one] it was 100 to 1000 nM; in that of `C[C@H]1CN(c2ccc3c(c2)CCN(C[C@H](O)CN2CCc4ccccc4C2)C3=O)CCO1` [Example 47, 2-[(2R)-3-(3,4-dihydro-1H-isoquinolin-2-yl)-2-hydroxy-propyl]-6-[(2S)-2-methylmorpholin-4-yl]-3,4-dihydroisoquinolin-1-one], 1 to 100 nM.
`COC1CCN(c2ccc3c(c2)CCN(C[C@H](O)CN2CCc4ccccc4C2)C3=O)CC1` [Example 48, 2-[(2R)-3-(3,4-dihydro-1H-isoquinolin-2-yl)-2-hydroxy-propyl]-6-(4-methoxy-1-piperidyl)-3,4-dihydroisoquinolin-1-one] displayed an IC50 of 1 to 100 nM.
In the case of `O=C1c2ccc(N3CCS(=O)(=O)CC3)cc2CCN1C[C@H](O)CN1CCc2ccccc2C1` [Example 49, 2-[(2R)-3-(3,4-dihydro-1H-isoquinolin-2-yl)-2-hydroxy-propyl]-6-(1,1-dioxo-1,4-thiazinan-4-yl)-3,4-dihydroisoquinolin-1-one], the IC50 fell in the range of 1 to 100 nM.
In the case of `O=C1c2ccc(NC3CCOC3)cc2CCN1C[C@H](O)CN1CCc2ccccc2C1` (stereo partly drawn) [Example 50, 2-[(2R)-3-(3,4-dihydro-1H-isoquinolin-2-yl)-2-hydroxy-propyl]-6-(tetrahydrofuran-3-ylamino)-3,4-dihydroisoquinolin-1-one] it was 100 to 1000 nM.
For `O=C1c2ccc(NC3COC3)cc2CCN1C[C@H](O)CN1CCc2ccccc2C1` [Example 51, 2-[(2R)-3-(3,4-dihydro-1H-isoquinolin-2-yl)-2-hydroxy-propyl]-6-(oxetan-3-ylamino)-3,4-dihydroisoquinolin-1-one], the IC50 fell in the range of 100 to 1000 nM.
In the case of `CC(=O)N1CCN(c2ccc3c(c2)CCN(C[C@H](O)CN2CCc4ccccc4C2)C3=O)CC1` [Example 52, 6-(4-acetylpiperazin-1-yl)-2-[(2R)-3-(3,4-dihydro-1H-isoquinolin-2-yl)-2-hydroxy-propyl]-3,4-dihydroisoquinolin-1-one] it was 100 to 1000 nM; in that of `CC(C)(C)OC(=O)N1CCN(c2ccc3c(c2)CCN(C[C@H](O)CN2CCc4ccccc4C2)C3=O)CC1` [Example 53, tert-butyl 4-[2-[(2R)-3-(3,4-dihydro-1H-isoquinolin-2-yl)-2-hydroxy-propyl]-1-oxo-3,4-dihydroisoquinolin-6-yl]piperazine-1-carboxylate], 1 to 100 nM.
The compound `O=C1c2ccc(CN3CCCOCC3)cc2CCN1C[C@H](O)CN1CCc2ccccc2C1` [Example 54, 2-[(2R)-3-(3,4-dihydro-1H-isoquinolin-2-yl)-2-hydroxy-propyl]-6-(1,4-oxazepan-4-ylmethyl)-3,4-dihydroisoquinolin-1-one] displayed an IC50 of 1 to 100 nM.
With `CN1CCN(c2ccc3c(c2)CCN(C[C@H](O)CN2CCc4ccccc4C2)C3=O)CC1=O` [Example 55, 2-[(2R)-3-(3,4-dihydro-1H-isoquinolin-2-yl)-2-hydroxy-propyl]-6-(4-methyl-3-oxo-piperazin-1-yl)-3,4-dihydroisoquinolin-1-one], the IC50 lay within 1 to 100 nM.
